Measured values from US7772251B2, “N-sulphonylated amino acid derivatives, method for the production and use thereof” (The Medicines Company (Leipzig) GmbH, priority 2003, dated 2010).

Test system: matriptase-expressing prostate carcinoma cells (PC-3)
Assay: Inhibition of proHGF-induced cell scattering (scatter assay)
Type: cell-based
Details: proHGF-stimulated; inhibitor 3 μM; 6 days; FIG. 2
Description: Because of its ability to induce the detachment of cells from an isolated assemblage and the dissemination of the cells, HGF is also referred to as scatter factor. This function can be detected at the cellular level with the aid of the so-called scatter assay. This entails the cells being seeded and their dissemination stimulated by the addition of HGF being recorded after a defined time. […] It is shown below by way of example for the matriptase inhibitors 37 and 54 that activation of proHGF by cellular matriptase is prevented and the scattering of proHGF-stimulated cells is reduced.
For this purpose, 500 matriptase-expressing prostate carcinoma cells (PC-3) were seeded in each well of a 96-well plate and incubated (37° C., 5% CO2) in 100 μl of medium without fetal calf serum (Nut Mix. F-12, 2% Ultroser HY) overnight, and then the scattering was stimulated by adding proHGF with and without matriptase inhibitors (3 μM). After 6 days, the cells were fixed and stained, and representative sections were photographed at 100× magnification.

Compound | inhibition of proHGF-induced scattering of PC-3 cells
N=C(N)NCCC1CCN(C(=O)[C@H](Cc2cccc(C(=N)N)c2)NS(=O)(=O)c2ccc3ccccc3c2)CC1.O=C(O)C(F)(F)F.O=C(O)C(F)(F)F [Compound 37, 2-Nas-Phe(3-Am) 4(guanidinoethyl)piperidide] | inhibit the proHGF-induced scattering of PC-3 cells

Biological target: T1, matriptase (Homo sapiens, UniProt Q9Y5Y6)
T1 construct: Met-Lys-(His)6 (N, cleaved yes); made in house; host or cells: Escherichia coli BL21 (DE3), vector pET24
T1 sequence (Q9Y5Y6 615-854 limits assumed): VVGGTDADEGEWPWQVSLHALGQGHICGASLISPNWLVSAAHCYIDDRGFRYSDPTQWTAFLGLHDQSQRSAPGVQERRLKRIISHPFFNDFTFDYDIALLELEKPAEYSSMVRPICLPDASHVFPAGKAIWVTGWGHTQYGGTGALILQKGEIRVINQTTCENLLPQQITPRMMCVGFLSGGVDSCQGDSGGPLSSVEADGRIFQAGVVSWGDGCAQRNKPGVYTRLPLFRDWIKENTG
Assay: Determination of Ki values for the inhibition of matriptase (chromogenic substrate CH3SO2-D-HHT-Gly-Arg-pNA)
Type: biochemical
Details: 25° C, pH 8.0, Dixon method, average of three determinations
Procedure: Preparation of the Catalytic Domain of Matriptase
The steps were in detail:
Activation: Since a correctly processed N terminus is a precondition for the activity of serine proteases, it was necessary to delete the peptide MK(His)6 to activate the refolded matriptase. For this purpose, the refolding mixture was incubated with 2.5 mU per 50 μg of protein of activated DAPase™ (Qiagen) at 30° C. for 2 h, and the activated matriptase was separated from the non-activated matriptase and the DAPase by metal chelate chromatography.
The proteolytic activity was detected by cleavage of the chromogenic substrate Pefachrome tPA (Pentapharm).

Ki | Compound
160 nM | N=C(N)c1cccc(CC(NS(=O)(=O)c2ccc3c(c2)C(=O)c2ccccc2C3=O)C(=O)N2CCN(C(=O)CCN)CC2)c1 (stereo not drawn) [Compound 2]
56 nM | CC(C)c1cc(C(C)C)c(S(=O)(=O)NC(Cc2cccc(C(=N)N)c2)C(=O)N2CCN(C(=O)CCCNC(=N)N)CC2)c(C(C)C)c1 (stereo not drawn) [Compound 7]
270 nM | N=C(N)c1cccc(C[C@H](NS(=O)(=O)c2ccc3cc4ccccc4cc3c2)C(=O)N2CCN(C(=O)CCN)CC2)c1 [Compound 10, anthracenesulfonyl-Phe(3-Am)-Pzd-β-Ala]
44 nM | N=C(N)NCCC(=O)N1CCN(C(=O)[C@H](Cc2cccc(C(=N)N)c2)NS(=O)(=O)c2ccc3cc4ccccc4cc3c2)CC1 [Compound 11, anthracenesulfonyl-Phe(3-Am)-Pzd-CO—CH2—CH2-guanidino]
830 nM | N=C(N)c1cccc(CC(NS(=O)(=O)c2ccc3ccccc3c2)C(=O)N2CCN(C(=O)CCN)CC2)c1 (stereo not drawn) [Compound 12]
400 nM | N=C(N)c1cccc(CC(NS(=O)(=O)c2ccc3c(c2)CCCC3)C(=O)N2CCN(C(=O)CCN)CC2)c1 (stereo not drawn) [Compound 14]
300 nM | N=C(N)NCCC(=O)N1CCN(C(=O)C(Cc2cccc(C(=N)N)c2)NS(=O)(=O)c2ccc3c(c2)CCCC3)CC1 (stereo not drawn) [Compound 15]
990 nM | N=C(N)c1cccc(CC(NS(=O)(=O)c2cccc3c2CCCC3)C(=O)N2CCN(C(=O)CCN)CC2)c1 (stereo not drawn) [Compound 16]
140 nM | N=C(N)c1cccc(CC(NS(=O)(=O)c2ccc(C3CCCCC3)cc2)C(=O)N2CCN(C(=O)CCN)CC2)c1 (stereo not drawn) [Compound 17]
600 nM | N=C(N)c1cccc(CC(NS(=O)(=O)c2ccc(-c3ccccc3)cc2)C(=O)N2CCN(C(=O)CCN)CC2)c1 (stereo not drawn) [Compound 19]
470 nM | CC(C)(C)c1ccc(S(=O)(=O)NC(Cc2cccc(C(=N)N)c2)C(=O)N2CCN(C(=O)CCN)CC2)cc1 (stereo not drawn) [Compound 21]
200 nM | CC(C)(C)c1ccc(S(=O)(=O)NC(Cc2cccc(C(=N)N)c2)C(=O)N2CCN(C(=O)CCNC(=N)N)CC2)cc1 (stereo not drawn) [Compound 22]
3300 nM | Cc1c(C)c(S(=O)(=O)NC(Cc2cccc(C(=N)N)c2)C(=O)N2CCN(C(=O)CCN)CC2)c(C)c2c1OC(C)(C)C2 (stereo not drawn) [Compound 23]
2400 nM | N=C(N)c1cccc(CC(NS(=O)(=O)Cc2ccc3ccccc3c2)C(=O)N2CCN(C(=O)CCN)CC2)c1 (stereo not drawn) [Compound 25]
400 nM | N=C(N)NCCC(=O)N1CCN(C(=O)C(Cc2cccc(C(=N)N)c2)NS(=O)(=O)Cc2ccc3ccccc3c2)CC1 (stereo not drawn) [Compound 26]
460 nM | N=C(N)c1cccc(CC(NS(=O)(=O)c2ccc3c(c2)C(=O)c2ccccc2C3=O)C(=O)N2CCN(C(=O)C3CNC3)CC2)c1 (stereo not drawn) [Compound 27]
9.8 nM | N=C(N)NCCNC(=O)C1CCN(C(=O)C(Cc2cccc(C(=N)N)c2)NS(=O)(=O)c2ccc3c(c2)C(O)c2ccccc2C3O)CC1 (stereo not drawn) [Compound 32]
160 nM | N=C(N)CCNC(=O)C1CCN(C(=O)C(Cc2cccc(C(=N)N)c2)NS(=O)(=O)c2ccc3ccccc3c2)CC1 (stereo not drawn) [Compound 35]
110 nM | N=C(N)c1cccc(C[C@H](NS(=O)(=O)c2ccc3ccccc3c2)C(=O)N2CCC(CCN)CC2)c1 [Compound 36, 2-Nas-Phe(3-Am) 4(aminoethyl)piperidide]
170 nM | N=C(N)c1cccc(CC(NS(=O)(=O)c2cccc3ccccc23)C(=O)N2CCC(CCN)CC2)c1 (stereo not drawn) [Compound 39]
7200 nM | N=C(N)c1cccc(CC(NC(=O)CNS(=O)(=O)c2ccc3ccccc3c2)C(=O)N2CCN(C(=O)CCN)CC2)c1 (stereo not drawn) [Compound 40]

Ki | Compound
74 nM | N=C(N)NCCC1CCN(C(=O)C(Cc2cccc(C(=N)N)c2)NS(=O)(=O)c2cccc3ccccc23)CC1 (stereo not drawn) [Compound 41]
360 nM | N=C(N)c1cccc(CC(NS(=O)(=O)CCc2cccc3ccccc23)C(=O)N2CCC(CCN)CC2)c1 (stereo not drawn) [Compound 42]
180 nM | N=C(N)NCCC1CCN(C(=O)C(Cc2cccc(C(=N)N)c2)NS(=O)(=O)CCc2cccc3ccccc23)CC1 (stereo not drawn) [Compound 43]
21000 nM | N=C(N)c1cccc(CC(NC(=O)CNS(=O)(=O)c2ccc3ccccc3c2)C(=O)N2CCC(CCN)CC2)c1 (stereo not drawn) [Compound 44]
140 nM | N=C(N)c1cccc(CC(NS(=O)(=O)c2ccc(C3CCCCC3)cc2)C(=O)N2CCC(CCN)CC2)c1 (stereo not drawn) [Compound 45]
3900 nM | N=C(N)c1cccc(CC(NC(=O)CNS(=O)(=O)c2ccc3ccccc3c2)C(=O)N2CCC(C(=O)NCCCNC(=O)OCc3ccccc3)CC2)c1 (stereo not drawn) [Compound 47]
360 nM | N=C(N)c1cccc(CC(NC(=O)CNS(=O)(=O)c2ccc3ccccc3c2)C(=O)N2CCC(C(=O)NCCCN)CC2)c1 (stereo not drawn) [Compound 48]
160 nM | N=C(N)CCNC(=O)C1CCN(C(=O)C(Cc2cccc(C(=N)N)c2)NC(=O)CNS(=O)(=O)c2ccc3ccccc3c2)CC1 (stereo not drawn) [Compound 49]
3500 nM | N=C(N)c1cccc(CC(NC(=O)CNS(=O)(=O)c2ccc(S(=O)(=O)N3CCOCC3)cc2)C(=O)N2CCN(C(=O)CCN)CC2)c1 (stereo not drawn) [Compound 50]
890 nM | N=C(N)NCCC(=O)N1CCN(C(=O)C(Cc2cccc(C(=N)N)c2)NC(=O)CNS(=O)(=O)c2ccc(S(=O)(=O)N3CCOCC3)cc2)CC1 (stereo not drawn) [Compound 51]
32 nM | N=C(N)c1cccc(CC(NS(=O)(=O)c2ccc(C3CCCCC3)cc2)C(=O)N2CCC(C(=O)N3CCN(C(=N)N)CC3)CC2)c1 (stereo not drawn) [Compound 54]
980 nM | N=C(N)c1cccc(CC(NS(=O)(=O)c2ccc(C3CCCCC3)cc2)C(=O)N2CCN(C(=N)N)CC2)c1 (stereo not drawn) [Compound 55]
550 nM | N=C(N)c1cccc(CC(NS(=O)(=O)c2ccc(C3CCCCC3)cc2)C(=O)N2CCNCC2)c1 (stereo not drawn) [Compound 58]
310 nM | N=C(N)c1cccc(CC(NS(=O)(=O)c2ccc(C3CCCCC3)cc2)C(=O)N2CCN(C(=O)C3CCNCC3)CC2)c1 (stereo not drawn) [Compound 60]
380 nM | N=C(N)CC(=O)N1CCN(C(=O)C(Cc2cccc(C(=N)N)c2)NS(=O)(=O)c2ccc(C3CCCCC3)cc2)CC1 (stereo not drawn) [Compound 61]
1100 nM | N=C(N)CC(=O)N1CCN(C(=O)C(Cc2cccc(C(=N)N)c2)NS(=O)(=O)c2ccc3ccccc3c2)CC1 (stereo not drawn) [Compound 62]
830 nM | CC(C)c1cc(C(C)C)c(S(=O)(=O)NC(Cc2cccc(C(=N)N)c2)C(=O)N2CCN(C(=O)C3CCN(C(=O)OC(C)(C)C)CC3)CC2)c(C(C)C)c1 (stereo not drawn) [Compound 65]
13000 nM | N=C(N)c1cccc(CC(NS(=O)(=O)c2ccc3ccccc3c2)C(=O)N2CC(C(=O)N3CCNCC3)C2)c1 (stereo not drawn) [Compound 66]
3400 nM | N=C(N)c1cccc(CC(NS(=O)(=O)c2ccc3ccccc3c2)C(=O)N2CC(C(=O)N3CCN(C(=N)N)CC3)C2)c1 (stereo not drawn) [Compound 67]
38 nM | N=C(N)NCCC1CCN(C(=O)C(Cc2cccc(C(=N)N)c2)NC(=O)CNS(=O)(=O)c2ccc3c(c2)Cc2ccccc2C3)CC1 (stereo not drawn) [Compound 68]

Compound | Ki
2,4,6-triisopropylphenylsulfonyl-Phe(3-Am)-iNip-DAE-H [Compound 3] | 53 nM
2,4,6-triisopropylphenylsulfonyl-Phe(3Am)-iNip-NH—CH2—CH2-guanidino [Compound 34] | 140 nM

Test system: matriptase-expressing colon carcinoma cell line DLD-1
Assay: Inhibition of invasive growth (Matrigel invasion assay)
Type: cell-based
Details: proHGF-stimulated; inhibitor 30 μM; 48 hours; FIG. 1
Description: A common test system for invasive growth at the cellular level is the Matrigel invasion assay. This entails cells being applied to an artificial extracellular matrix and investigation of how many cells migrate through the latter within a defined period.
It is shown here by way of example for the matriptase inhibitors 37 and 54 that invasive growth is influenced and the migration of matriptase-expressing colon carcinoma cell line DLD-1 through Matrigel is inhibited:
The wells of a ‘Transwell’ plate were each coated with 10 μg of Matrigel and 160 000 DLD-1 cells (Dexter et al, Cancer Research 39: 1020-1025 (1979)) in 100 μl of medium (RPMI 1640, with 2% Ultroser HY serum substituted) were applied to each, invasive growth was stimulated by adding ProHGF in 400 μl of medium with and without inhibitor (30 μM). After incubation at 37° C. and 5% CO2 for 48 hours, the cells which had migrated through the matrix were fixed, stained and photographed at 100× magnification.

Compound | inhibition of migration/invasion of DLD-1 cells through Matrigel
N=C(N)NCCC1CCN(C(=O)[C@H](Cc2cccc(C(=N)N)c2)NS(=O)(=O)c2ccc3ccccc3c2)CC1.O=C(O)C(F)(F)F.O=C(O)C(F)(F)F [Compound 37, 2-Nas-Phe(3-Am) 4(guanidinoethyl)piperidide] | inhibited
